# Assay results taken from patent publication US10604523B2, “1-aryl-4-methyl-[1,2,4]triazolo[4,3-a]quinoxaline derivatives” (Janssen Pharmaceutica NV, priority 2011, dated 2020).
# Tests used:
# [1] = molecular target: T1, Human recombinant PDE2A (hPDE2A) (Homo sapiens, UniProt O00408); test: In vitro assay PDE2A (SPA, 3H-cGMP); assay type: biochemical; settings: read-out: pIC50 PDE2 (converted)
# T1 construct: made in house; host or cells: Sf9 insect cells (baculovirus)
# [2] = molecular target: T2, Rat recombinant PDE10A (rPDE10A2) (Rattus norvegicus, UniProt Q9QYJ6); test: In vitro assay PDE10A (SPA, 3H-cAMP); assay type: biochemical; settings: read-out: PIC50 PDE10 (converted)
# T2 construct: made in house; host or cells: Sf9 insect cells (baculovirus)
# T2 sequence (Q9QYJ6 1-794): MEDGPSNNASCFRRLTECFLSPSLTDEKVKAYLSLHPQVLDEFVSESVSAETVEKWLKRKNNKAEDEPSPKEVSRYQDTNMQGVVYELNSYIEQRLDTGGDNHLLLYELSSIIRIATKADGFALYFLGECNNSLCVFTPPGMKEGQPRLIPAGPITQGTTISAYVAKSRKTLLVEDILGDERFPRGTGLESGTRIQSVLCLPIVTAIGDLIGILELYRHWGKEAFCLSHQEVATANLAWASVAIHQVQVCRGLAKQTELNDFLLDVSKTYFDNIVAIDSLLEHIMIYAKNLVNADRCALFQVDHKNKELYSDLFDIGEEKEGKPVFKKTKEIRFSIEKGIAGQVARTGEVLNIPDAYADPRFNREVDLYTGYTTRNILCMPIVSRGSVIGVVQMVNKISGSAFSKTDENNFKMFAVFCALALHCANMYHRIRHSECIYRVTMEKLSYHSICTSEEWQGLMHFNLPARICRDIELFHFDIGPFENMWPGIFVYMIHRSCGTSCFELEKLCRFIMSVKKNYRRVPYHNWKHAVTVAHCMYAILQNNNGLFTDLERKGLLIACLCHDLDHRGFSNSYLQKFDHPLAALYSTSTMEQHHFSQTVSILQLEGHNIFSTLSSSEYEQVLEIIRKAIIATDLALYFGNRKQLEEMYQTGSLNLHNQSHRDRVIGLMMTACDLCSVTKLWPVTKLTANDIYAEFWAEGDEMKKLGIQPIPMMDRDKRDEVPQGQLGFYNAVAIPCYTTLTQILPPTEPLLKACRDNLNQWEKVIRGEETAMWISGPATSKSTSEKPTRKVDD
# T1 sequence (O00408 whole entry): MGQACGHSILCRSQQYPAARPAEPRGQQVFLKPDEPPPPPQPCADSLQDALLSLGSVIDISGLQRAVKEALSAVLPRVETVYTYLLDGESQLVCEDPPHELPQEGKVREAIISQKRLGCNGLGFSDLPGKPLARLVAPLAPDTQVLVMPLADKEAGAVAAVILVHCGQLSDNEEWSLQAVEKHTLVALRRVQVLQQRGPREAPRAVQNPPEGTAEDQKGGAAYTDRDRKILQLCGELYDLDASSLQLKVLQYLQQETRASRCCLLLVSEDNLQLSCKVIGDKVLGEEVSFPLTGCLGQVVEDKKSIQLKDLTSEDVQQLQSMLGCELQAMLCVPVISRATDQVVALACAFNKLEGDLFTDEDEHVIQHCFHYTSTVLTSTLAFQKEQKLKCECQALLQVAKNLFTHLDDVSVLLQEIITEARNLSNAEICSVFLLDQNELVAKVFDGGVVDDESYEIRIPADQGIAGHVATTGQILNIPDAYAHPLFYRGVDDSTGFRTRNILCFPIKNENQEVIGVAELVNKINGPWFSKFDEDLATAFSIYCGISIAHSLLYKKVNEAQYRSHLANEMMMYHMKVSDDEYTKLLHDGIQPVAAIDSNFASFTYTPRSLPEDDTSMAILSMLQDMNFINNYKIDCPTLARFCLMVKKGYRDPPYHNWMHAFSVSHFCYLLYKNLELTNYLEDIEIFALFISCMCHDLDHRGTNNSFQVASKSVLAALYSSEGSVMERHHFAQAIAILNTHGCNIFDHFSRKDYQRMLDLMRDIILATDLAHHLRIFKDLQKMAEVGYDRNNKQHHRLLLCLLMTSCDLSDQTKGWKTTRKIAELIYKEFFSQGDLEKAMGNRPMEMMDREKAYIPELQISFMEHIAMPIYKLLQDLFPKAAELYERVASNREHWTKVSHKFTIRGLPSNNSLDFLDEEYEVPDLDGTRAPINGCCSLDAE
Compound,IC50 [1] [nM],IC50 [2] [nM]
CCCOc1ccc(Cl)c(-c2nnc3c(C)nc4ccc(CN5CCN(C)CC5)cc4n23)c1 [Compound B-137],33.1,1000
CCCOc1ccc(Cl)c(-c2nnc3c(C)nc4ccc(CNc5cccnc5)cc4n23)c1 [Compound B-138],33.9,708
Cc1nc2ccc(Br)cc2n2c(-c3cncc(OCC4CC4)c3)nnc12 [Compound B-125],27.5,3090
"Cc1nc2ccc(C(N3CCOCC3)C(F)(F)F)cc2n2c(-c3ccccc3Cl)nnc12 (stereo not shown) [Compound B-22, 1-(2-Chlorophenyl)-4-methyl-8-(2,2,2-trifluoro-1-morpholin-4-ylethyl) [1,2,4]triazolo[4,3-a]quinoxaline]",7.76,89.1
CCNC(=O)c1ccc2nc(C)c3nnc(-c4cccnc4OC)n3c2c1 [Compound B-123],27.5,417
"Cc1nc2ccc(Oc3ccncc3)cc2n2c(-c3ccccc3Cl)nnc12 [Compound B-30, 1-(2-Chlorophenyl)-4-methyl-8-(pyridin-4-yloxy)[1,2,4]triazolo[4,3-a]quinoxaline]",5.75,24.5
"Cc1nc2ccc(N)cc2n2c(-c3ccccc3Cl)nnc12 [Compound B-27, 1-(2-Chlorophenyl)-4-methyl[1,2,4]triazolo[4,3-a]quinoxalin-8-amine]",2.34,29.5
"CCCCOc1ccc(Cl)c(-c2nnc3c(C)nc4ccc(N5CCN(C)CC5)cc4n23)c1 [Compound B-26, 1-(5-Butoxy-2-chlorophenyl)-4-methyl-8-(4-methylpiperazin-1-yl) [1,2,4]triazolo-[4,3-a]quinoxaline]",17.4,1260
COc1ccc(Cl)c(-c2nnc3c(C)nc4ccc(Br)cc4n23)c1 [Compound B-69],6.17,77.6
Cc1nc2ccc(N3CCN(C)CC3)cc2n2c(-c3cc(OC(C)C)ccc3Cl)nnc12 [Compound B-115],24.5,1120
Cc1nc2ccc(OCCc3cccnc3)cc2n2c(-c3cc(OC(C)C)ccc3Cl)nnc12 [Compound B-146],40.7,1020
"CCC(=O)Nc1ccc2nc(C)c3nnc(-c4ccccc4Cl)n3c2c1 [Compound B-28, N-[1-(2-Chlorophenyl)-4-methyl[1,2,4]triazolo[4,3-a]quinoxalin-8-yl]propanamide]",2.29,13.2
CCCCOc1ccc(Cl)c(-c2nnc3c(C)nc4ccc(CNC5CCC5)cc4n23)c1 [Compound B-126],28.2,2450
Cc1nc2ccc(N(C)C)cc2n2c(-c3ccccc3Cl)nnc12 [Compound B-87],11.2,26.9
Cc1nc2ccc(C(=O)OCCc3ccccc3)cc2n2c(-c3ccccc3)nnc12 [Compound B-122],27.5,331
CCCOc1ccc(Cl)c(-c2nnc3c(C)nc4ccc(N5CCN(C)CC5)cc4n23)c1 [Compound B-117],25.1,912
Cc1nc2ccc(CNc3cccnc3)cc2n2c(-c3cc(OC(C)C)ccc3Cl)nnc12 [Compound B-133],30.2,1230
CCCOc1ccc(Cl)c(-c2nnc3c(C)nc4ccc(CN5CCC(O)CC5)cc4n23)c1 [Compound B-129],28.8,891
CCCOc1ccc(Cl)c(-c2nnc3c(C)nc4ccc(OCCc5cccnc5)cc4n23)c1 [Compound B-116],24.5,513
"Cc1nc2ccc(CO)cc2n2c(-c3ccccc3)nnc12 [Compound B-29, (4-Methyl-1-phenyl[1,2,4]triazolo[4,3-a]quinoxalin-8-yl)methanol]",44.7,380
CCCCOc1ccc(Cl)c(-c2nnc3c(C)nc4ccc(CN5CCC(F)CC5)cc4n23)c1 [Compound B-132],29.5,1780
CCCCOc1ccc(Cl)c(-c2nnc3c(C)nc4ccc(CN5CCC(O)CC5)cc4n23)c1 [Compound B-105],19.1,1450
CCNC(c1ccc2nc(C)c3nnc(-c4ccccc4Cl)n3c2c1)C(F)(F)F (stereo not shown) [Compound B-64],5.75,30.2
CCCCOc1ccc(Cl)c(-c2nnc3c(C)nc4ccc(CNCC5CC5)cc4n23)c1 [Compound B-152],50.1,3890
Cc1nc2ccc(CN3CCC(O)CC3)cc2n2c(-c3cc(OC(C)C)ccc3Cl)nnc12 [Compound B-136],31.6,1260
"Cc1nc2ccc(C(=O)OCc3ccccc3)cc2n2c(-c3ccccc3)nnc12 [Compound B-8, Benzyl 4-methyl-1-phenyl[1,2,4]triazolo[4,3-a]quinoxaline-8-carboxylate]",20.4,380
"CCOC(=O)c1ccc2c(c1)nc(C)c1nnc(-c3ccccc3Cl)n12 [Compound B-1b, ethyl 1-(2-chlorophenyl)-4-methyl[1,2,4]triazolo[4,3-a]quinoxaline-7-carboxylate]",51.3,447

# Further lines, results first:
IC50 [1] [nM],IC50 [2] [nM],Compound
135,977,COc1ccc2nc(C)c3nnc(-c4cnccc4C)n3c2c1 [Compound B-173]
60.3,2450,CCCCOc1ccc(Cl)c(-c2nnc3c(C)nc4ccc(CN5CCN(C)CC5)cc4n23)c1 [Compound B-160]
89.1,5890,COCCc1cncc(-c2nnc3c(C)nc4ccc(CN5CCOCC5)cc4n23)c1 [Compound B-198]
102,3630,Cc1nc2ccc(CN3CCN(C)CC3)cc2n2c(-c3cc(OC(C)C)ccc3Cl)nnc12 [Compound B-170]
60.3,8710,CCCOc1ccc(Cl)c(-c2nnc3c(C)nc4ccc(OC[C@@H]5CCCN5)cc4n23)c1 [Compound B-161]
126,7760,CCNC(=O)c1ccc2c(c1)nc(C)c1nnc(-c3cncc(OC)c3)n12 [Compound B-172]
69.2,1150,COc1cncc(-c2nnc3c(C)nc4ccc(C(F)(F)F)cc4n23)c1 [Compound B-163]
135,> 10000,CCCCOc1cncc(-c2nnc3c(C)nc4ccc(CN5CCCC5)cc4n23)c1 [Compound B-206]
60.3,347,Cc1nc2ccc(Br)cc2n2c(-c3ccccc3OC(F)(F)F)nnc12 [Compound B-159]
102,2820,CCNC(=O)c1ccc2c(c1)nc(C)c1nnc(-c3cccnc3C)n12 [Compound B-169]
275,> 10000,Cc1nc2ccc(CN3CCCC3)cc2n2c(-c3cncc(OCC4CC4)c3)nnc12 [Compound B-208]
355,6170,CCOCc1cncc(-c2nnc3c(C)nc4ccc(CN(C)C)cc4n23)c1 [Compound B-212]
60.3,9120,CCCCOc1cncc(-c2nnc3c(C)nc4ccc(CNC5CCC5)cc4n23)c1 [Compound B-155]
89.1,3890,Cc1nc2ccc(CN3CCC(F)CC3)cc2n2c(-c3cncc(OCC4CC4)c3)nnc12 [Compound B-199]
67.6,871,Cc1cncc(-c2nnc3c(C)nc4ccc(C(F)(F)F)cc4n23)c1 [Compound B-162]
29.5,7760,CCOCc1cncc(-c2nnc3c(C)nc4ccc(CN5CCOCC5)cc4n23)c1 [Compound B-194]
60.3,603,Cc1nc2ccc(C(=O)OCCCc3ccccc3)cc2n2c(-c3ccccc3)nnc12 [Compound B-158]
57.5,282,Cc1nc2ccc(CN3CCC(N(C)C)CC3)cc2n2c(-c3ccccc3Cl)nnc12 [Compound B-157]
204,1780,CCNC(=O)c1ccc2c(c1)nc(C)c1nnc(-c3cccnc3OC)n12 [Compound B-180]
64.6,8710,Cc1nc2ccc(CN3CCOCC3)cc2n2c(-c3cncc(OCCCF)c3)nnc12 [Compound B-196]
240,5500,CCNC(=O)c1ccc2nc(C)c3nnc(-c4ccccn4)n3c2c1 [Compound B-181]
81.3,501,COc1cncc(-c2nnc3c(C)nc4ccc(OC(F)(F)F)cc4n23)c1 [Compound B-165]
61.7,7940,CCCCOc1cncc(-c2nnc3c(C)nc4ccc(CNCC5CC5)cc4n23)c1 [Compound B-156]
132,8130,COCCCc1cncc(-c2nnc3c(C)nc4ccc(CN5CCOCC5)cc4n23)c1 [Compound B-204]
42.7,3550,Cc1nc2ccc(CN3CCOCC3)cc2n2c(-c3cncc(OCCF)c3)nnc12 [Compound B-195]
95.5,5130,CCCCOc1cncc(-c2nnc3c(C)nc4ccc(CN5CCC(F)CC5)cc4n23)c1 [Compound B-201]
